# From US20240025922A1, “TETRAHYDROPYRIDO[3,4-d]PYRIMIDINES AS HPK1 INHIBITORS” (Merck Patent GmbH, priority 2022, published 2024)
# pIC50: −log10 of the molar value.
# Biological target: full-length human HPK1 (MAP4K1) (Homo sapiens (Human), UniProt Q92918)
# Experiment: HPK1 Kinase Assay (Biochemical Assay), ADP-Glo
# Details: GST-HPK1 3.2 nM, 10 μM ATP, MBP substrate, read-out: HPK1 enzymatic IC50
# Description: HPK1 Kinase Assay (Biochemical Assay).
# A recombinant fusion protein consisting of full-length human HPK1 (MAP4K1) with an N-terminal Glutatione S-transferase (GST) tag was produced in insect cells Sf21 using the baculovirus expression system. GST-HPK1 protein was purified from cell lysates by glutathione Sepharose affinity chromatography. The assay is run in three continuous steps: 1) the HPK1 enzymatic kinase reaction, 2) an ATP depletion, and 3) the ADP detection, the steps 2 and 3 are performed with ADP-Glo™ Kinase Assay kit from Promega (V9101). Test compounds were prepared by 10-point serial dilution in dimethyl sulfoxide (DMSO) and 100 nL of each dilution was spotted onto a 384-well Optiplate (Perkin Elmer and Cat #6007299) by Labcyte Echo. 5 μL kinase reaction buffer (0.02% Brij-35, 2 mM DTT, 50 mM HEPES pH 7.5, MgCl2 10 mM, BSA 0.01% and O-glycerophosphate 12.5 mM) containing HPK1 (3.2 nM) enzyme was transferred to each well and incubated for 15 minutes at room temperature at 60% humidity. The enzymatic reaction was started by adding 5 μl of Start-Mix (10 μM ATP and 3.235 μM MBP). After 120 minutes, the reaction was stopped by adding 5 μL of ADP-Glo reagent (Promega, V9101) and incubating for 40 min. in the dark at 23° C. To determine the level of ADP, 10 μl ADP-Glo Detection solution was added and incubated for 1 hour at 23° C. in the dark. The plate was transferred to a Perkin Elmer EnVision (2104 Multilabel Reader) for luminescence detection and percent inhibition activity and IC50 value were determined using Genedata Screener.
# Chain of full-length human HPK1 (MAP4K1) (Q92918 whole entry): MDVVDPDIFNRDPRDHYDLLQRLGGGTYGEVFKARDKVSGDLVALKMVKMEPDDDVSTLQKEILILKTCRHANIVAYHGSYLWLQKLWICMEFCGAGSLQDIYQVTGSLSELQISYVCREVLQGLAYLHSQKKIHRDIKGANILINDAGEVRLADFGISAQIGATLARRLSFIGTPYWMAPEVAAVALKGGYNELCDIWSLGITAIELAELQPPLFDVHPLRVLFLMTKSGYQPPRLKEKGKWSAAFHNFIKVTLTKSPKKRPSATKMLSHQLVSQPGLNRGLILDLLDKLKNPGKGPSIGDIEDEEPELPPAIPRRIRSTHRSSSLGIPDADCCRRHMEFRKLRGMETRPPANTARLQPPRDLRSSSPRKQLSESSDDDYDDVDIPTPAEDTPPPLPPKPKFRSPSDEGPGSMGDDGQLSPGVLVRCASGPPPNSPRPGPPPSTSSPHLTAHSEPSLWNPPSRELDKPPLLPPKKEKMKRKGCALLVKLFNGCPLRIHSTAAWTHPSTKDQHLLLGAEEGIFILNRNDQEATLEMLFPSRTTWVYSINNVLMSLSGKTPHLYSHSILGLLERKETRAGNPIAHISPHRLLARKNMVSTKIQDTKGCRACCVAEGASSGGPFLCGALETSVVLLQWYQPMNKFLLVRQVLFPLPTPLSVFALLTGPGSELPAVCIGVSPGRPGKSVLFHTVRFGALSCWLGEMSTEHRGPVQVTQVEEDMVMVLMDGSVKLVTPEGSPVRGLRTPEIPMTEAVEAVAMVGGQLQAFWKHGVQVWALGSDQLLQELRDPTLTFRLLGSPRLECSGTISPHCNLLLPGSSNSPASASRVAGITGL
row,pIC50,Structure (SMILES)
1,> 7.00,"Cc1cc(Nc2ncc3c(n2)CN(c2cnc4c(c2C)NCCO4)CC3)cnc1N(C)CCN1CCOCC1 [Example 43, N2,3-dimethyl-N5-(7-{8-methyl-1H,2H,3H-pyrido[2,3-b][1,4]oxazin-7-yl}-5H,6H,7H,8H-pyrido[3,4-d]pyrimidin-2-yl)-N2-[2-(morpholin-4-yl)ethyl]pyridine-2,5-diamine]"
2,> 7.00,"Cc1c(N2CCc3cnc(Nc4cc5n(n4)CC(=O)N(C4CC4)CC5)cc3C2)cnc2c1NCCO2 [Example 141, 6-cyclopropyl-2-[(6-{8-methyl-1H,2H,3H-pyrido[2,3-b][1,4]oxazin-7-yl}-5,6,7,8-tetrahydro-2,6-naphthyridin-3-yl)amino]-4H,5H,6H,7H,8H-pyrazolo[1,5-d][1,4]diazepin-7-one]"
3,> 7.00,"Cc1c(N2CCc3cnc(Nc4ccnc(N5CCOCC5)c4)cc3C2)cnc2c1NCCO2 [Example 54, 6-(8-methyl-2,3-dihydro-1H-pyrido[2,3-b][1,4]oxazin-7-yl)-N-(2-morpholinopyridin-4-yl)-5,6,7,8-tetrahydro-2,6-naphthyridin-3-amine]"
4,> 7.00,"Cc1c(N2CCc3cnc(Nc4ccc(CS(C)(=O)=O)cc4)nc3C2)cnc2oc(=O)[nH]c12 [Example 160, 6-(2-{[4-(methanesulfonylmethyl)phenyl]amino}-5H,6H,7H,8H-pyrido[3,4-d]pyrimidin-7-yl)-7-methyl-1H,2H-[1,3]oxazolo[5,4-b]pyridin-2-one]"
5,< 6.00,"CS(=O)(=O)Cc1ccc(Nc2ncc3c(n2)CN(c2cnc4cnccn24)CC3)cc1 [Example 136, 7-{imidazo[1,2-a]pyrazin-3-yl}-N-[4-(methanesulfonylmethyl)phenyl]-5H,6H,7H,8H-pyrido[3,4-d]pyrimidin-2-amine]"
6,< 6.00,"Cc1cnsc1N1CCc2cnc(Nc3cc4n(n3)CC(=O)N(C(C)C)CC4)nc2C1 [Example 86, 2-{[7-(4-methyl-1,2-thiazol-5-yl)-5H,6H,7H,8H-pyrido[3,4-d]pyrimidin-2-yl]amino}-6-(propan-2-yl)-4H,5H,6H,7H,8H-pyrazolo[1,5-d][1,4]diazepin-7-one; trifluoroacetic acid]"
7,> 7.00,"Cc1c(N2CCc3cnc(Nc4ccc(C(=O)N5CC[C@@H](N(C)C)C5)cc4)cc3C2)cnc2c1NCCO2 [Example 11, N-{4-[(3R)-3-(dimethylamino)pyrrolidine-1-carbonyl]phenyl}-6-{8-methyl-1H,2H,3H-pyrido[2,3-b][1,4]oxazin-7-yl}-5,6,7,8-tetrahydro-2,6-naphthyridin-3-amine]"
8,> 7.00,"COc1cccc(F)c1N1CCc2cnc(Nc3ccc(C4CCN(C)CC4)cc3)nc2C1 [Example 117, 7-(2-fluoro-6-methoxyphenyl)-N-(4-(1-methylpiperidin-4-yl)phenyl)-5,6,7,8-tetrahydropyrido[3,4-d]pyrimidin-2-amine]"
9,< 6.00,"Cn1ccc2c(N3CCc4cnc(Nc5ccc(CS(C)(=O)=O)cc5)nc4C3)ccnc21 [Example 146, N-[4-(methanesulfonylmethyl)phenyl]-7-{1-methyl-1H-pyrrolo[2,3-b]pyridin-4-yl}-5H,6H,7H,8H-pyrido[3,4-d]pyrimidin-2-amine]"
10,> 7.00,"Cc1c(N2CCc3cnc(Nc4cnc5c(c4)CN(C)CC5)nc3C2)cnc2c1NC(=O)CO2 [Example 88, 8-methyl-7-(2-((6-methyl-5,6,7,8-tetrahydro-1,6-naphthyridin-3-yl)amino)-5,8-dihydropyrido[3,4-d]pyrimidin-7(6H)-yl)-1H-pyrido[2,3-b][1,4]oxazin-2(3H)-one]"
11,> 7.00,"Cc1c(N2CCc3cnc(Nc4ccnc(S(C)(=O)=O)c4)nc3C2)cnc2c1NCCO2 [Example 75, 7-(8-methyl-2,3-dihydro-1H-pyrido[2,3-b][1,4]oxazin-7-yl)-N-(2-(methylsulfonyl)pyridin-4-yl)-5,6,7,8-tetrahydropyrido[3,4-d]pyrimidin-2-amine]"
12,6.00 to 7.00,"Cc1c(N2CCc3cnc(Nc4ccc(NC(=O)C5(C)COC5)nc4)nc3C2)cnc2c1NCCO2 [Example 8, 3-methyl-N-{5-[(7-{8-methyl-1H,2H,3H-pyrido[2,3-b][1,4]oxazin-7-yl}-5H,6H,7H,8H-pyrido[3,4-d]pyrimidin-2-yl)amino]pyridin-2-yl}oxetane-3-carboxamide]"
13,> 7.00,"Clc1c(N2CCc3cnc(Nc4ccc(-c5nnc(C6CC6)o5)cc4)nc3C2)cnc2c1NCCO2 [Example 159, 7-{8-chloro-1H,2H,3H-pyrido[2,3-b][1,4]oxazin-7-yl}-N-[4-(5-cyclopropyl-1,3,4-oxadiazol-2-yl)phenyl]-5H,6H,7H,8H-pyrido[3,4-d]pyrimidin-2-amine]"
14,> 7.00,"Cc1c(N2CCc3cnc(Nc4ccc(CN5CCN(C)CC5)cc4)nc3C2)cnc2c1NCCO2 [Example 64, 7-{8-methyl-1H,2H,3H-pyrido[2,3-b][1,4]oxazin-7-yl}-N-{4-[(4-methylpiperazin-1-yl)methyl]phenyl}-5H,6H,7H,8H-pyrido[3,4-d]pyrimidin-2-amine]"
15,> 7.00,"CN1CCc2ncc(Nc3ncc4c(n3)CN(c3cnn(C)c3)CC4)cc2C1 [Example 114, 7-(1-methyl-1H-pyrazol-4-yl)-N-(6-methyl-5,6,7,8-tetrahydro-1,6-naphthyridin-3-yl)-5,6,7,8-tetrahydropyrido[3,4-d]pyrimidin-2-amine]"
16,6.00 to 7.00,"COCc1cncc(N2CCc3cnc(Nc4ccc(C5CCOCC5)c(CO)c4)nc3C2)c1 [Example 78, (5-((7-(5-(methoxymethyl)pyridin-3-yl)-5,6,7,8-tetrahydropyrido[3,4-d]pyrimidin-2-yl)amino)-2-(tetrahydro-2H-pyran-4-yl)phenyl)methanol]"

# Further lines, the compound ahead of its results:
row,Structure (SMILES),pIC50
1,"Cc1cc(Nc2ncc3c(n2)CN(c2cnc4c(c2C)NCCO4)CC3)ccc1CC#N [Example 149, 2-{2-methyl-4-[(7-{8-methyl-1H,2H,3H-pyrido[2,3-b][1,4]oxazin-7-yl}-5H,6H,7H,8H-pyrido[3,4-d]pyrimidin-2-yl)amino]phenyl}acetonitrile]",> 7.00
2,"Cc1c(N2CCc3cnc(Nc4ccc5c(c4)CCN(C)CC5)nc3C2)cnc2c1NCCO2 [Example 62, 3-methyl-N-(7-{8-methyl-1H,2H,3H-pyrido[2,3-b][1,4]oxazin-7-yl}-5H,6H,7H,8H-pyrido[3,4-d]pyrimidin-2-yl)-2,3,4,5-tetrahydro-1H-3-benzazepin-7-amine]",> 7.00
3,"Cc1c(N2CCc3cnc(Nc4cnc5c(c4)CN(C)CC5)nc3C2)cnc2c1OCCO2 [Example 95, 7-(8-methyl-2,3-dihydro-[1,4]dioxino[2,3-b]pyridin-7-yl)-N-(6-methyl-5,6,7,8-tetrahydro-1,6-naphthyridin-3-yl)-5,6,7,8-tetrahydropyrido[3,4-d]pyrimidin-2-amine]",> 7.00
4,"Cc1c(N2CCc3cnc(Nc4cnc5c(c4)CN(C)CC5)nc3C2)cnc2c1N(C)CCO2 [Example 101, 7-(1,8-dimethyl-2,3-dihydro-1H-pyrido[2,3-b][1,4]oxazin-7-yl)-N-(6-methyl-5,6,7,8-tetrahydro-1,6-naphthyridin-3-yl)-5,6,7,8-tetrahydropyrido[3,4-d]pyrimidin-2-amine]",> 7.00
5,"COCCS(=O)(=O)Cc1ccc(Nc2cc3c(cn2)CCN(c2cnc4c(c2C)NCCO4)C3)cc1 [Example 172, N-{4-[(2-methoxyethanesulfonyl)methyl]phenyl}-6-{8-methyl-1H,2H,3H-pyrido[2,3-b][1,4]oxazin-7-yl}-5,6,7,8-tetrahydro-2,6-naphthyridin-3-amine]",> 7.00
6,"CN1CCc2ncc(Nc3ncc4c(n3)CN(c3ccccn3)CC4)cc2C1 [Example 129, 6-methyl-N-[7-(pyridin-2-yl)-5H,6H,7H,8H-pyrido[3,4-d]pyrimidin-2-yl]-5,6,7,8-tetrahydro-1,6-naphthyridin-3-amine]",6.00 to 7.00
7,"Cc1c(N2CCc3cnc(Nc4cc5n(n4)CC(=O)N(C)CC5)nc3C2)cnc2c1NCCO2 [Example 22, 6-methyl-2-[(7-{8-methyl-1H,2H,3H-pyrido[2,3-b][1,4]oxazin-7-yl}-5H,6H,7H,8H-pyrido[3,4-d]pyrimidin-2-yl)amino]-4H,5H,6H,7H,8H-pyrazolo[1,5-d][1,4]diazepin-7-one]",6.00 to 7.00
8,"COCCOCCS(=O)(=O)Cc1ccc(Nc2ncc3c(n2)CN(c2cnc4c(c2C)NCCO4)CC3)cc1 [Example 137, N-(4-{[2-(2-methoxyethoxy)ethanesulfonyl]methyl}phenyl)-7-{8-methyl-1H,2H,3H-pyrido[2,3-b][1,4]oxazin-7-yl}-5H,6H,7H,8H-pyrido[3,4-d]pyrimidin-2-amine]",> 7.00
9,"Cc1c(N2CCc3cnc(Nc4ccc(CN5CC(C)(O)C5)cc4)nc3C2)cnc2c1NCCO2 [Example 123, 3-methyl-1-(4-((7-(8-methyl-2,3-dihydro-1H-pyrido[2,3-b][1,4]oxazin-7-yl)-5,6,7,8-tetrahydropyrido[3,4-d]pyrimidin-2-yl)amino)benzyl)azetidin-3-ol]",6.00 to 7.00
10,"Cc1c(N2CCc3cnc(Nc4ccc(CCO)cc4)nc3C2)cnc2c1NCCO2 [Example 134, 2-{4-[(7-{8-methyl-1H,2H,3H-pyrido[2,3-b][1,4]oxazin-7-yl}-5H,6H,7H,8H-pyrido[3,4-d]pyrimidin-2-yl)amino]phenyl}ethan-1-ol]",> 7.00
